Molecules are shown by their SMILES. In brackets after ≈: the same amount, converted by molar mass. Several values for one entry are separate records, joined by “and”; a condition that tells them apart may be missing. Equal values may be shown once. Read-outs that look alike come from different tables or passages of the source.

Data set [1] addresses recombinant human MEK 1 (MAPKK) and recombinant human ERK2 (MAPK). Briefly: Mitogen Activated Protein Kinase (MAPK) assay, two component coupled MEK 1 / ERK2.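 Further: MEK 1-activated ERK2 phosphorylates MBP or Myc peptide with 33P-ATP, filter capture and scintillation counting, inhibitor preincubated with ERK2 30 min at 0 °C, inhibition relative to uninhibited control.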 The settings on record: separate entries for the same compound = evaluated more than one time. It is filed as biochemical.
Description: To evaluate inhibitors of the MAP (mitogen activated protein) kinase a two component coupled standard pharmacological test procedure, which measures phosphorylation of a serine/threonine residue in an appropriate sequence in the substrate in the presence and absence of a putative inhibitor, was used. Recombinant human MEK 1 (MAPKK) was first used to activate recombinant human ERK2 (MAPK) and the activated MAPK (ERK) was incubated with substrate (MBP peptide or MYC peptide) in the presence of ATP, Mg^+2 and radiolabeled ^33P ATP. The phosphorylated peptide was captured on a P 81 phosphocellulose filter (paper filter or embedded in microtiter plate) washed and counted by scintillation methods.
The peptide substrates used in the assay are MBP, peptide substrate ([sequence]), or synthetic Myc substrate, ([sequence]•5 TFA. The recombinant enzymes used were prepared as GST fusion proteins of human ERK 2 and human MEK 1. Inhibitor samples were prepared as 10X stocks in 10% DMSO and an appropriate aliquot was used to deliver either 10 ug/ml for a single point screening dose or 100, 10, 1, and 0.1 uM final concentration for a dose response curve. Final DMSO concentrations were less than or equal to 1%.
The reaction was run as follows in 50 mM Tris kinase buffer, pH 7.4 in a reaction volume of 50 ul. The appropriate volume of kinase buffer and inhibitor sample was added to the tube. Appropriate dilution of enzyme was delivered to give 2-5 ug recombinant MAPK (Erk ) per tube. The inhibitor was incubated with MAPK (Erk) for 30 min at 0 deg. […] Recombinant Mek (MAPKK) ( 0.5-2.5 ug) or fully activated Mek (0.05-0.1 units) was added to activate the Erk and incubated for 30 min at 30° C. […] Samples were incubated at 30°C for 30 minutes and the reaction was stopped by adding 25 µl of ice cold 10 %TCA .After samples were chilled on ice for 30 min, 20 µl of sample was transferred onto P 81 phosphocellulose filter paper or appropriate MTP with embedded P 81 filter. Filter papers or MTP were washed 2 times with a large volume of 1% acetic acid, then 2 times with water. The filters or MTP were briefly air dried before addition of scintillant and samples were counted in the appropriate scintillation counter set up for reading ^33P isotope.
The raw data was captured as cpm. Sample replicates were averaged and corrected for background count. Mean cpm data was tabulated by group and % inhibition by a test compound was calculated as (corrected cpm control- corrected. cpm sample/control) X 100 = % inhibition.
The subject of the next data set is A431. In words: Inhibition of cancer cell growth as measured by cell number, A431.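 Further: human A431 line, picked because it overexpresses epidermal growth factor receptor (EGFR).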 Format: cell-based, human. As to conditions: Homo sapiens, A-431, 48 h, Table 8.
Another data set deals with SW620. In words: Inhibition of cancer cell growth as measured by cell number, SW620.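 On all read-outs here: SW620 was included as a cell line with little or no EGFR or HER2/neu expression, in contrast to receptor-overexpressing lines.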 Format: cell-based, human. As to conditions: Table 8; for IC50: Homo sapiens, SW-620, 48 h.
The subject of another data set is SKBR3. In words: Inhibition of cancer cell growth as measured by cell number, SKBR3.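 On all read-outs here: SK-BR-3 cells were selected as a line overexpressing HER2/neu.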 It is filed as cell-based, human. As to conditions: Table 8; for IC50: Homo sapiens.
In data set [2] the target is T1, His-tagged cytoplasmic domain of EGFR (Homo sapiens, UniProt P00533).
T1 construct: containing the EGFR cDNA encoding amino acids 645 - 1186 preceded by Met-Ala-(His)6; made in house; host or cells: Sf9 cells, recombinant baculovirus vHcEGFR52
Briefly: Inhibition of Epidermal Growth Factor Receptor Kinase (EGF-R) using recombinant enzyme.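 Further: radiometric kinase assay measuring radiolabeled phosphate transfer from ATP onto the peptide tyrosine by scintillation counting, control is reaction without compound, background subtracted, IC50 from dose-response curve.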 It is filed as biochemical. The settings on record: recombinant enzyme; RR-SRC peptide; average of the number of tests; read-out: IC50.

The test system of data set [3] is human epidermoid tumors (A431). In words: In vivo inhibition of the growth of human epidermoid tumors (A431). The settings on record: Table 11; for S/T = No. Survivors/No. Treated: Day +28 post tumor staging. As to the method:
Representative compounds of this invention (listed below) were evaluated in an in vivo standard pharmacological test procedure which measured its ability to inhibit the growth of human epidermoid tumors. […] BALB/c nu/nu female mice (Charles River, Wilmington, MA) were used in this in vivo standard pharmacological test procedure. A unit of 5 X 10^6 cells were injected SC into mice. When tumors attained a mass of between 100 and 150 mg, the mice were randomized into treatment groups (day zero). […] Control animals received no drug. Tumor mass was determined every 7 days [(length X width^2)/2] for 28 days post staging. Relative tumor growth (Mean tumor mass on days 7, 14, 21, and 28 divided by the mean tumor mass on day zero) is determined for each treatment group.

Setting [4] is: cell number, Sulforhodamine B, 48 hours exposure, read-out: IC50 A431.
Setting [5] is: cell number, Sulforhodamine B, 48 hours exposure, read-out: IC50 SW620.
Setting [6] is: SK-BR-3, cell number, Sulforhodamine B, 48 hours exposure, read-out: IC50 SKBR3.
Setting [7] is: cell number, Sulforhodamine B, 48 hours exposure.
The mark [8] stands for this setting: read-out: IC50 SW620, cell number, Sulforhodamine B, 48 hours exposure.
Where [9] appears, read: SK-BR-3, 48 h, read-out: IC50 SKBR3, cell number, Sulforhodamine B, 48 hours exposure.
Setting [10] is: 80 mg/kg/dose IP on days 1,5 and 9.
The mark [11] stands for this setting: 80 mg/kg/dose PO on days 1 through 10.

T1 sequence (P00533 669-1210): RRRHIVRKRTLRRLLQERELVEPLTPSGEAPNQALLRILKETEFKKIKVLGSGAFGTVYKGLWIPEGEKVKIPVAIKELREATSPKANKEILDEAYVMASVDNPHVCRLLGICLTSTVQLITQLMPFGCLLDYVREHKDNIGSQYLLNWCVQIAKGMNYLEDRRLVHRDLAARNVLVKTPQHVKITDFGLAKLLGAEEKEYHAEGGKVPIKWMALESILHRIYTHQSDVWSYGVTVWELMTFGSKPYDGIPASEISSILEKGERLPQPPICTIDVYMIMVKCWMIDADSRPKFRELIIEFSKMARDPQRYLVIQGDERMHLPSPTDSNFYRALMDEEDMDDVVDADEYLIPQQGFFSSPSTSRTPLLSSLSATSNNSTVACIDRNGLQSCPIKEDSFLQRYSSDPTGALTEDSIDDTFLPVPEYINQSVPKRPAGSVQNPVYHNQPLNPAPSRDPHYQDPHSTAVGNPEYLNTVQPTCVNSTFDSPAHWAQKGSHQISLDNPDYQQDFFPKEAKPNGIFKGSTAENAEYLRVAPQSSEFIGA
Excerpt for SKBR3: (§1) The cell lines were chosen since they overexpressed epidermal growth factor receptor (EGFR) (i.e. A431) or HER2/neu (SKBR3), or had little to no expression of the these receptors (SW620, LOX, MCF7).
Excerpt for SW620: as §1

As to `CCOc1cc2ncc(C#N)c(NCc3cccc(Br)c3)c2cc1OCC` [Example 61, 4-(3-Bromophenylmethylamino)-6,7-diethoxy-3-quinolinecarbonitrile], the IC50 in data set [1] is more than 100 µM; with A431 (setting [4]) it was 0.341 µg/mL (≈ 0.8 µM); in the data set with SW620 (setting [5]), 1.07 µg/mL (≈ 2.5 µM); with SKBR3 (setting [6]), 1.09 µg/mL (≈ 2.57 µM). `CCOc1cc2ncc(C#N)c(NCc3ccccc3)c2cc1OCC` [Example 62, 4-(3-Phenylmethylamino)-6,7-diethoxy-3-quinolinecarbonitrile]: in the data set on SW620 (setting [7]), the “IC50 SW620” value amounted to 0.3 µg/mL (≈ 0.864 µM). For the same molecule, the “IC50 SKBR3” value in the data set on SKBR3 (setting [7]) is 0.3 µg/mL (≈ 0.864 µM). As to `CCOc1cc2ncc(C#N)c(NCc3ccc(Cl)c(Cl)c3)c2cc1OCC` [Example 64, 4-(3.4-Dichlorophenylmethylamino)-6,7-diethoxy-3-quinolinecarbonitrile], the 50% inhibitory concentration (IC50) in data set [1] stood at 3 µM. Also, the “IC50 SW620” value in the data set on SW620 (setting [7]) was 1.603 µg/mL (≈ 3.85 µM). Further, in the data set on SKBR3 (setting [7]), the “IC50 SKBR3” value stood at 1.965 µg/mL (≈ 4.72 µM). For `C=CC(=O)Nc1ccc2ncc(C#N)c(Nc3cccc(F)c3)c2c1` [Example 88, N-[3-Cyano-4-(3-fluorophenylamino)quinolin-6-yl]acrylamide], in data set [2], the IC50 was 0.08 µM. In the case of `C=CC(=O)Nc1cc(CN(C)C)c2ncc(C#N)c(Nc3cccc(Br)c3)c2c1` [Example 111, N-{4-[(3-Bromophenyl)amino]-3-cyano-8-dimethylaminomethyl-6-quinolinyl}-2-propenamide], the IC50 with A431 (setting [4]) was found to be 3.05 µg/mL (≈ 6.76 µM); in the data set on SW620 (setting [5]) it was 2.02 µg/mL (≈ 4.48 µM); in the data set with SKBR3 (setting [6]) it was 3.32 µg/mL (≈ 7.38 µM). As to `CC(=O)Nc1cc(CN(C)C)c2ncc(C#N)c(Nc3cccc(Br)c3)c2c1` [Example 112, N-{4-[(3-Bromophenyl)amino]-3-cyano-8-dimethylaminomethyl-6-quinolinyl} acetamide], the IC50 in data set [1] is more than 100 µM; in the data set with A431 (read-out: IC50 A431, cell number, Sulforhodamine B, 48 hours exposure), more than 5 µg/mL; in the data set on SW620 (setting [8]), more than 5 µg/mL; in the data set with SKBR3 (setting [9]), more than 5 µg/mL. Take `C=CC(=O)Nc1ccc2ncc(C#N)c(Nc3cccc(Cl)c3)c2c1` [Example 135, N-4-[(3-Chlorophenyl)amino]-3-cyano-6-guinolinyl-2-propenarnide]: in data set [2], the IC50 came out at 0.01 µM. For the molecule `C=C(CN1CCOCC1)C(=O)Nc1ccc2ncc(C#N)c(Nc3ccc(F)c(Cl)c3)c2c1` [Example 148, N-{4-[(3-chloro-4-fluorophenyl)amino]-3-cyano-6-quinolinyl}-2-morpholin-4-ylmethyl-2-propenamide], the IC50 in the data set on SW620 (setting [8]) was 0.26 µg/mL (≈ 0.558 µM); in the data set with SKBR3 (setting [9]), 0.043 µg/mL (≈ 0.0923 µM). For `N#Cc1cnc2ccc(N)cc2c1Nc1ccc(Br)cc1` [Example 152, 6-Amino-4-[(4-bromophenyl)amino]-3-quinolinecarbonitrile], in data set [2], the IC50 was 0.1 µM.

Regarding `C=C(CN1CCOCC1)C(=O)Nc1ccc2ncc(C#N)c(Nc3cccc(Br)c3)c2c1` [Example 171, N-{4-[(3-Bromophenyl)amino]-3-cyano-6-quinolinyl}-2-morpholin-4-ylmethyl-2-propenamide], the IC50 in data set [2] was found to be 0.0065 µM. In the case of `CCOc1cc2ncc(C#N)c(Nc3cccc(Br)c3)c2cc1NC(=O)C=CCN(C)C` [Example 216, 4-Dimethylamino-but-2-enoic acid [4-(3-bromo-phenylamino)-3-cyano-7-ethoxy-quinolin-6-yl]-amide], in data set [3] (setting [10]), the “%T/C Day 7” value is listed as 14%, the “%T/C Day 14” value is 12%, the “%T/C Day 21” value was 17% and the “%T/C Day 28” value was 19%. In data set [3] (setting [10]), the “S/T = No. Survivors/No. Treated” value is 5/5. In data set [3] (setting [11]), the “%T/C Day 7” value amounted to 6%, the “%T/C Day 14” value turned out to be 6%, the “%T/C Day 21” value is on record as 12% and the “%T/C Day 28” value amounted to 21%. Further, the “S/T = No. Survivors/No. Treated” value in data set [3] (setting [11]) is 5/5. Also, in the data set with SKBR3 (setting [9]), the IC50 is 0.012 µg/mL (≈ 0.0243 µM). Further, the “IC50 SKBR3” value in the data set on SKBR3 (setting [7]) is 0.015 µg/mL (≈ 0.0303 µM). Turning to `COc1cc(NC(=O)C=CCN(C)C)cc2c(Nc3cccc(Br)c3)c(C#N)cnc12` [Example 224], in data set [2], the half-inhibitory concentration (IC50) was 1 µM.

For the molecule `CCOc1cc2ncc(C#N)c(Nc3ccc(F)c(Cl)c3)c2cc1OCC` [Example 256, 4-(3-Chloro-4-fluorophenylamino)-6,7-diethoxy-3-quinolinecarbonitrile], the IC50 in data set [2] came out at 0.1 µM. With `CSc1cccc(Nc2c(C#N)cnc3ccc([N+](=O)[O-])cc23)c1` [Example 364, 4-[(3-Methylsulfanylphenyl)amino]-6-nitro-3-quinolinecarbonitrile], the IC50 in data set [1] is more than 100 µM.

With `N#Cc1cnc2ccc([N+](=O)[O-])cc2c1Nc1cccc(OC(F)(F)F)c1` [Example 365, 4-[(3-Trifluoromethoxyphenyl)amino]-6-nitro-3-quinolinecarbonitrile], the IC50 in data set [1] was more than 100 µM. For `COc1cc2ncc(C#N)c(Nc3cccc(N(C)C)c3)c2cc1OC` [Example 366, 4-(3-Dimethylamino-phenylamino)-6,7-dimethoxy-quinoline-3-carbonitrile], the IC50 in data set [1] came out at 4 µM.

In the case of `COc1cc2ncc(C#N)c(Nc3cccc(O)c3C)c2cc1OC` [Example 374, 4-(3-Hydroxy-2-methyl-phenylamino)-6,7-dimethoxy-quinoline-3-carbonitrile], in data set [1], the IC50 is < 1 µM and 2 µM. Turning to `N#Cc1cnc2ccc([N+](=O)[O-])cc2c1Nc1ccc(Br)c(Br)c1` [Example 377, 4-(3,4-Dibromophenylamino)-6-nitroquinoline-3-carbonitrile], the IC50 in data set [1] was more than 100 µM. The same measure, in the same setting: to `N#Cc1cnc2ccc(N)cc2c1Nc1ccc(Br)c(Br)c1` [Example 379, 6-Amino-4-(3,4-dibromophenylamino)quinoline-3-carbonitrile] belongs 40 µM; to `CCC(=O)Nc1ccc2ncc(C#N)c(Nc3cccc(Br)c3)c2c1` [Example 381, N-[4-(3-Bromophenylamino)-3-cyanoquinolin-6-yl]propionamide], more than 100 µM.

Regarding `C/C=C/C(=O)Nc1ccc2ncc(C#N)c(Nc3cccc(Br)c3)c2c1` [Example 382, (E)-But-2-enoic Acid [4-(3-Bromophenylamino)-3-cyanoquinolin-6-yl]amide], the IC50 in data set [1] is more than 100 µM. Consider `N#Cc1cnc2ccc([N+](=O)[O-])cc2c1Nc1cccc(F)c1` [Example 384, 4-(3-Fluorophenylamino)-6-nitroquinoline-3-carbonitrile], for which, in data set [1], the IC50 was more than 100 µM. Same read-out and setting: to `N#Cc1cnc2ccc(N)cc2c1Nc1cccc(F)c1` [Example 385, 6-Amino-4-(3-fluorophenylamino)quinoline-3-carbonitrile] belongs 90 µM; to `CN(C)c1cccc(Nc2c(C#N)cnc3ccc([N+](=O)[O-])cc23)c1` [Example 386, 4-(3-Dimethylaminophenylamino)-6-nitroquinoline-3-carbonitrile], more than 100 µM.

Turning to `CN(C)c1ccc(Nc2c(C#N)cnc3ccc([N+](=O)[O-])cc23)cc1` [Example 387, 4-(4-Dimethylaminophenylamino)-6-nitroquinoline-3-carbonitrile], the IC50 in data set [1] is more than 100 µM. Consider `CN(C)c1cccc(Nc2c(C#N)cnc3ccc(N)cc23)c1` [Example 388, 6-Amino-4-(3-dimethylaminophenylamino)quinoline-3-carbonitrile], for which the IC50 in data set [1] was 25 µM and 50 µM. Turning to `CN(C)c1ccc(Nc2c(C#N)cnc3ccc(N)cc23)cc1` [Example 389, 6-Amino-4-(4-dimethylaminophenylamino)quinoline-3-carbonitrile], the IC50 in data set [1] is more than 100 µM.

Turning to `CC#CC(=O)Nc1ccc2ncc(C#N)c(Nc3cccc(F)c3)c2c1` [Example 390, But-2-ynoic Acid [4-(3-Fluorophenylamino)-3-cyanoquinolin-6-yl]amide], the IC50 in data set [1] was more than 100 µM. As to `CC#CC(=O)Nc1ccc2ncc(C#N)c(Nc3ccc(N(C)C)cc3)c2c1` [Example 394, But-2-ynoic Acid [3-Cyano-4-(4-dimethylaminophenylamino)quinolin-6-yl]amide], in data set [1], the IC50 is more than 100 µM.

In the case of `COc1cccc(Nc2c(C#N)cnc3ccc(N(C)C)cc23)c1.Cl` [Example 396, 6-Dimethylamino-4-(3-methoxyphenylamino)quinoline-3-carbonitrile Hydrochloride], the IC50 came out at 50 µM in data set [1], 0.3 µg/mL with A431 (setting [4]), 2.7 µg/mL in the data set with SW620 (setting [5]) and 0.2 µg/mL in the data set with SKBR3 (setting [6]).

By IC50 is commonly meant the concentration that inhibits the measured activity by half.

(Values after patent EP0973746B1, “SUBSTITUTED 3-CYANO QUINOLINES” (Wyeth Holdings Corporation, priority 1997, dated 1998).)
